Test results taken from US11554105B2, “Combinations of artemisinins, BCL-2 inhibitors, and kinase inhibitors for cancer treatment” (UNIVERSITY OF MARYLAND, BALTIMORE, priority 2018, dated 2023).
“Also recorded” adds a separate entry of the source. Where two headings read alike, the source gives them in different places. Marks after values point to notes of the source that are not given here.

Columns and labels:
[1] = in vivo
Source text: (§1) FIG. 24. Concentration-time profile for 2C-ARTs with PK parameters.
FIG. 25A-25C. […] NOD-Rag1^nullIL2rg^null (NRG) mice were transplanted IV with Luc-labelled MV4; 11 cells on d10. […] FIG. 25A) MTD cyclic drug treatment schema.

[2] = cited from earlier work
[3] = tested on: human AML cell lines; assay: In vitro efficacies of artemisinin derivatives against human AML cell lines; format: cell-based
Method: Cell lines were seeded in 96-well tissue culture plates at 10^4 cells per well (myeloid leukemia lines) or 2×10^4 cells per well (lymphoid leukemia lines) in culture medium, followed by addition of drugs at the indicated concentrations. 2-4 wells per plate containing media-only were included for background subtraction. Peripheral wells were filled with sterile water to minimize the effects of evaporation.
A novel trioxane dimer allyloxime-631 (ART631) has been designed to further extend in vivo T1/2 without sacrificing antimalarial activity.

[4] = tested on: human leukemia cell lines; details: more potent than AS; cited from earlier work
[5] = tested on: mitochondrial superoxide in MOLM14 cells; assay: Mitochondrial superoxide (MitoSOX Red, flow cytometry); format: cell-based, human; details: 16 h, 2.25× approximate 48 h IC50, MitoSox MFI
Method: FIGS. 4A-4D. Effects of ART-838- and AS-containing drug combinations on MOLM14 growth and superoxide generation. […] CIs were computed as described above. CI<1 indicates synergy, CI=1, additivity, CI>1, antagonism. […] Cells were then loaded with 5 μM MitoSox for 30 min, washed, and analyzed by flow cytometry for MitoSox fluorescence (indicating mitochondrial superoxide) in the FL2 channel. Mean fluorescence intensity (MFI) was normalized to that of vehicle control (0.5% DMSO) with no pretreatment (100%, lower dotted lines). Upper dotted lines show MFI of ART-838- or AS-treated cells. Error bars represent the SEM of three independent experiments.
Cells were pretreated with NAC, Tiron, DFO, or vehicle then treated with AS, ART-838, or vehicle, as described above, then following a 16-hour drug treatment, cells were loaded with 5 μM MitoSOX Red (Invitrogen, Carlsbad, Calif.) for 30 minutes at 37° C. with 5% CO2, then analyzed using the FL2 channel of an Accuri C6 flow cytometer.
As both ART-838 and AS increased mitochondrial superoxide, and many antineoplastic drugs induce ROS generation, mitochondrial superoxide levels of MOLM14 cells treated with each of the above six antileukemic drugs were evaluated, alone and in combination with ART-838 or AS. All six drugs induced mitochondrial superoxide, although to a much lesser extent than did ART-838 (FIG. 4B) or AS (FIG. 4D).

[6] = tested on: MV4:11 or MOLM14 AML xenografts; assay: Luc-labelled AML xenografts treated with VEN, SOR and ART838 or ART631 (5-cycle MTD regimen); format: in vivo, NRG mice; details: two AML xenograft models; single agents and in combination with VEN+SOR
Source text: FIG. 25A-25C. […] FIG. 25A) MTD cyclic drug treatment schema.
Outcome metrics included 1) maximal in vivo antileukemic efficacy 3 days (d) after completion of the 1st treatment cycle (FIG. 25B); 2) survival (FIG. 25C); and 3) toxicity.

[7] = PO qd×5 at MTD; 15 mg/kg ART631, 50 mg/kg ART838
Method: as §1
Preliminary pharmacokinetic (PK) studies were designed to compare the PK of ART631 at steady-state at its maximum tolerated dose (MTD) (FIG. 24). […] ART631 plasma concentrations exceeded 50 nM for ˜8 h.

[8] = tested on: RCH-ACV; assay: Kinase inhibitor drug combination screen (MTS, Bliss-independence analysis); details: Drug 1 combined with AS (Drug 2) at its approximate IC50, 48 h, average over seven Drug 1 concentrations
[9] = tested on: KOPN8; assay: as above; format: cell-based, human; details: Drug 1 combined with ART-838 (Drug 2) at its approximate IC50, 48 h, average over seven Drug 1 concentrations
[10] = tested on: MOLM14, KOPN8 and RCH-ACV cell lines; assay: Kinase inhibitor drug combination screen, summary over the three cell lines; details: >10% growth inhibition over the Bliss prediction; of three cell lines
Method: Plates (3×384-well per set) contained 7 graded concentrations of each drug at 2× final concentration in culture media in 25 μl/well. […] Cells were plated such that each well contained 2500 cells (MOLM14) or 5000 cells (KOPN8 and RCH-ACV). […] Each plate contained two positive control wells used for background subtraction. Each plate also contained 45 wells without any drug. The background-subtracted absorbance for each well was normalized to the average of the no-drug wells from the corresponding vehicle plate.
Hits were ranked by the observed inhibition over the Bliss independence prediction.
Combinations with positive values for this Bliss difference were considered synergistic, values near zero, additive, and negative values, antagonistic.

| fractional inhibition over Bliss prediction [8] | fractional inhibition over Bliss prediction [9] | SMILES | previously established MTD, PO×5 d schedule ([1]; 5 d-on/9 d-off, gavage) [mg/kg/day] | MTD regimen, repeated dose ([1]; qd×5 PO) [mg/kg] | in vivo T1/2 [2] [h] | IC50 ([3]; median over the human AML cell lines tested (11 for AS and ART838, 4 for ART631), read-out: IC50 median) [nM] | IC50 ([3]; range over the human AML cell lines tested (11 for AS and ART838, 4 for ART631), read-out: IC50 range) [nM] | in vitro potency relative to AS [4] [fold] | mitochondrial superoxide generation, drug alone [5] | tolerability and antileukemic efficacy, ART631 compared with ART838 [6] | exposure, oral ART631 compared with ART838 [7] | No. Cell Lines synergistically inhibited by drug 1 combined with AS and/or ART-838 [10] |
| --- | --- | --- | --- | --- | --- | --- | --- | --- | --- | --- | --- | --- |
| – | – | C[C@@H]1CCC2[C@@H](C)[C@@H](CC(COP(=O)(Oc3ccccc3)Oc3ccccc3)C[C@H]3O[C@@H]4O[C@@]5(C)CCC6[C@H](C)CCC([C@H]3C)[C@]64OO5)O[C@@H]3O[C@@]4(C)CCC1[C@@]23OO4 (stereo partly drawn) [ART-838, artemisinin-derived trioxane diphenylphosphate dimer 838] | 50 | 50 | 3 | 38 | 10 to 547 | 88 | induced superoxide to greater levels than AS; also recorded: induced mitochondrial superoxide generation | closely similar tolerability and antileukemic efficacy | similar | – |
| RCH-ACV (0.14) | KOPN8 (0.12) | COc1cc(Oc2ccnc3cc(OC)c(OC)cc23)ccc1NC(=O)NC(C)c1nccs1 (stereo not drawn) [KI20227] | – | – | – | – | – | – | – | – | – | 2/3** |
